# Reference: US12577252B2, “Drug for the treatment of diseases caused by bacteria” (priority 2020, dated 2026)
# Columns and labels:
# H. influenzae [1] = assay: MIC of 1a and its combinations with antimicrobials, serial dilutions; type: cell-based, Haemophilus influenzae; details: liquid nutrient medium, substance alone
# Method: We used a strain of H. influenzae grown on a liquid nutrient medium. The minimum inhibitory concentration was determined by the method of serial dilutions.
# S. aureus = assay: Clinical treatment of tonsillitis, eradication of the pathogen; type: in vivo, Staphylococcus aureus; details: for Eradication, %: S. aureus tonsillitis patients
# Method: (§1) This pathology was chosen by us as one of the above lists to confirm the effectiveness and practical applicability of the claimed compound. The study was performed on two groups of patients, totaling 138 people, who received the drug enterally twice a day at doses from 500 mg to 2000 mg. The compound was administered as a pharmaceutical composition containing Compound 1a in acetate form in an isotonic solution of a pharmaceutically acceptable sodium chloride carrier.
# S. pyogenes = assay: as above; type: in vivo, Streptococcus pyogenes; details: for Eradication, %: S. pyogenes tonsillitis patients
# Method: as §1
# [2] = system: S. aureus ANCC29213 biofilms; assay: Survival of bacteria in biofilms (CFU count); type: cell-based, Staphylococcus aureus; details: 10 μg/ml; for Number of CFU: 24 h biofilm, incubated 24 hours at 37° C.
# Method: S. aureus ANCC29213 bacteria were grown in a 24-well plateau in LB medium for 24 hours at 37° C. After that, Compound 1a and lincomycin (8 wells for each preparation and control without preparations) were added to the wells at final concentrations of 10 μg/ml and incubated for 24 hours at 37° C. After incubation, the medium was removed, the biofilms were washed with a sterile solution of isotonic sodium chloride, the biofilms were removed from the bottom of the wells, resuspended in isotonic sodium chloride solution, and the number of colony forming units (CFU) was determined by the method of serial dilutions.
# [3] = system: Staphylococcus aureus ATCC 38591; assay: Acute generalized infection in C57BL6 mice, death of mice; type: in vivo; details: 10 mice
# Method: To study the chemotherapeutic efficacy, a model of acute generalized infection in small animals was used. C57BL6 mice were intraperitoneally infected with Staphylococcus aureus ATCC 38591 at a dose of 1×10^8 microbial cells. The infectious dose was established in preliminary studies. Mice infected with the same dose of microbial culture but not treated served as controls.
# The preparations were dissolved in an isotonic sodium chloride solution and substance 1a or Lincomycin was administered. 2 hours after infection, the drugs were administered orally daily at doses of 10 to 100 mg/kg, 2 times a day.
# The death of mice was taken into account daily for 7 days.
# [4] = system: methicillin- and vancomycin-resistant strains of Staphylococcus aureus and Streptococcus spp; details: literature statement; cited from earlier work
# S. aureus ATCC 29213 = assay: MIC by serial dilution (CLSI), S. aureus ATCC 29213; type: cell-based, Staphylococcus aureus
# S pyogenes = assay: MIC by serial dilution (CLSI), firmicutes bacteria; type: cell-based, Streptococcus pyogenes; details: fresh clinical isolate
# Method: (§2) Determination of the antimicrobial activity of substances was carried out on dense and liquid nutrient media. To assess the minimum inhibitory concentration (MIC), the serial dilution method was used, according to the recommendations of CLSI (Clinical Laboratories and Standards Institute, formerly National Committee for Clinical Laboratory Standards) (Clinical Laboratories and Standards Institute. Methods for Dilution Antimicrobial Susceptibility Tests for Bacteria That Grow Aerobically; Approved Standard—Seventh Edition Document M7-A7 CLSI, Wayne, Pa., 2006; Clinical Laboratories and Standards Institute).
# (§3) The assessment of the antimicrobial activity of substances against firmicute bacteria was performed on fresh clinical isolates of strains of Streptococcus pyogenes, Streptococcus mitis, Bacillus subtilis, Bacillus cereus, Corynebacterium ulcerans, Micrococcus luteus.
# S. mitis = assay: MIC by serial dilution (CLSI), firmicutes bacteria; type: cell-based, Streptococcus mitis; details: fresh clinical isolate
# Method: as §2, §3
# B. subtilis = assay: MIC by serial dilution (CLSI), firmicutes bacteria; type: cell-based, Bacillus subtilis; details: fresh clinical isolate
# Method: as §2, §3
# B. cereus = assay: MIC by serial dilution (CLSI), firmicutes bacteria; type: cell-based, Bacillus cereus; details: fresh clinical isolate
# Method: as §2, §3
# L. monocytogenes = assay: MIC by serial dilution (CLSI), firmicutes bacteria; type: cell-based
# C. ulcerans = assay: MIC by serial dilution (CLSI), firmicutes bacteria; type: cell-based, Corynebacterium ulcerans; details: fresh clinical isolate
# Method: as §2, §3
# M. lutteus = assay: MIC by serial dilution (CLSI), firmicutes bacteria; type: cell-based, Micrococcus luteus; details: fresh clinical isolate
# Method: as §2, §3
# [5] = system: Escherichia coli ATCC29592; assay: MIC, gracilicutes and wall-less bacteria; type: cell-based; details: E. coli ATCC29592
# Method: as §2, with “Institute). The study of the effect on strains was performed on fresh clinical isolates of Haemophilus influenzae, Neisseria meningitides, Ureaplasma urealyticum strains, as well as on the Escherichia coli ATCC29592 strain.” for “Institute).”
# H. influenzae [6] = assay: MIC, gracilicutes and wall-less bacteria; type: cell-based, Haemophilus influenzae; details: fresh clinical isolate, Table 2
# Method: as §2, with “Institute). The study of the effect on strains was performed on fresh clinical isolates of Haemophilus influenzae, Neisseria meningitides, Ureaplasma urealyticum strains, as well as on the Escherichia coli ATCC29592 strain.” for “Institute).”
# N. meningitides = assay: MIC, gracilicutes and wall-less bacteria; type: cell-based, Neisseria meningitides; details: fresh clinical isolate
# Method: as §2, with “Institute). The study of the effect on strains was performed on fresh clinical isolates of Haemophilus influenzae, Neisseria meningitides, Ureaplasma urealyticum strains, as well as on the Escherichia coli ATCC29592 strain.” for “Institute).”
# U. urealyticum = assay: MIC, gracilicutes and wall-less bacteria; type: cell-based, Ureaplasma urealyticum; details: fresh clinical isolate
# Method: as §2, with “Institute). The study of the effect on strains was performed on fresh clinical isolates of Haemophilus influenzae, Neisseria meningitides, Ureaplasma urealyticum strains, as well as on the Escherichia coli ATCC29592 strain.” for “Institute).”
# S. aureus SA77 = assay: MIC, S. aureus strains with multiple resistance; type: cell-based, Staphylococcus aureus; details: SA77, VRSA strain
# Method: as §2
# (§4) The study of the effect of Compound 1a on strains with multiple resistance to existing antibiotics was performed on fresh clinical isolates of strains: S. aureus VT-V-18, S. aureus VT-E-25 S. aureus VT-A-199 and S. aureus VT-P-82, as well as S. aureus strain American Type Culture Collection (Rockville, Md.) and strains S. aureus SA77 and S. aureus SA85,
# S. aureus SA85 = assay: MIC, S. aureus strains with multiple resistance; type: cell-based, Staphylococcus aureus; details: SA85, VRSA strain
# Method: as §2, §4
# S. aureus VT-A-199 = assay: MIC, S. aureus strains with multiple resistance; type: cell-based, Staphylococcus aureus; details: VT-A-199, MRSA strain, clinical isolate
# Method: as §2, §4
# S. aureus VT-E-25 = assay: MIC, S. aureus strains with multiple resistance; type: cell-based, Staphylococcus aureus; details: VT-E-25, MRSA strain, clinical isolate
# Method: as §2, §4
# S. aureus VT-P-82 = assay: MIC, S. aureus strains with multiple resistance; type: cell-based, Staphylococcus aureus; details: VT-P-82, MRSA strain, clinical isolate
# Method: as §2, §4
# S. aureus VT-V-18 = assay: MIC, S. aureus strains with multiple resistance; type: cell-based, Staphylococcus aureus; details: VT-V-18, MRSA strain, clinical isolate
# Method: as §2, §4
# [7] = system: various strains of S. aureus; assay: Effects on various strains of S. aureus (MRSA, VRSA, MSSA), overall; type: cell-based, Staphylococcus aureus; details: S. aureus strains of Table 3
# Method: as §2, §4
# [8] = Haemophilus influenzae, read-out: MIC
# [9] = 10 mg/kg orally 2 times a day, day 2
# [10] = 10 mg/kg orally 2 times a day, day 4
# [11] = 20 mg/kg orally 2 times a day, day 3
# [12] = 20 mg/kg orally 2 times a day, day 4
compound,measurement,setting,value
C[C@H]1COc2c(N3CCN(C)CC3)c(F)cc3c(=O)c(C(=O)O)cn1c23 [Levofloxacin],MIC,H. influenzae [1]; [8],0.05 µg/mL
"CC1(C)S[C@@H]2[C@H](NC(=O)COc3ccccc3)C(=O)N2[C@H]1C(=O)O [Phenoxymethylpenicillin, reference compound]","Eradication, %","S. aureus; day 4, enterally twice a day",4.11%
same,"Eradication, %",S. aureus; day 8,9.59%
same,"Eradication, %",S. aureus; day 14,13.70%
same,"Eradication, Number of patients","S. aureus; day 4, enterally twice a day",3
same,"Eradication, Number of patients",S. aureus; day 8,7
same,"Eradication, Number of patients",S. aureus; day 14,10
same,"Eradication, %",S. pyogenes; day 4,10.14%
same,"Eradication, %",S. pyogenes; day 8,11.59%
same,"Eradication, %",S. pyogenes; day 14,13.04%
same,"Eradication, Number of patients",S. pyogenes; day 4,7
same,"Eradication, Number of patients",S. pyogenes; day 8,8
same,"Eradication, Number of patients",S. pyogenes; day 14,9
CCC[C@@H]1C[C@@H](C(=O)N[C@@H]([C@H]2O[C@H](SC)[C@H](O)[C@@H](O)[C@H]2O)[C@@H](C)O)N(C)C1 [Lincomycin],change of the number of CFUs in biofilms,[2]; 24 hours,does not change the number of CFUs
same,Number of CFU,[2],2.0 ± 1.0 × 10^8 CFU
same,Mice death,[3]; [9],2
same,Mice death,[3]; [10],1
same,Mices death,"[3]; 10 mg/kg orally 2 times a day, fifth day, head printed 1",2
same,Mices death,"[3]; 10 mg/kg orally 2 times a day, sixth day column, head printed 2",1
same,Mice death,[3]; [11],1
same,Mice death,[3]; [12],1
same,Mices death,"[3]; 20 mg/kg orally 2 times a day, fifth day, head printed 1",3
same,Mices death,"[3]; 50 mg/kg orally 2 times a day, day 3",1
same,Mices death,"[3]; 50 mg/kg orally 2 times a day, day 4",1
same,Mices death,"[3]; 50 mg/kg orally 2 times a day, fifth day, head printed 1",2
same,effect on MRSA and VRSA strains,[4],no effect
"CC(=O)[O-].O=c1[nH]c(=O)c2cc3cc(Br)cc(Br)c3[o+]c2[nH]1 [Compound 1a, 7,9-dibromo-2,4-dioxo-1,2,3,4-tetrahydrochromeno[2,3-d]-pyrimidinium-10 acetate]",MIC,"S. aureus ATCC 29213; ATCC 29213, strain MSSA, Table 3",0.5 µg/mL
same,MIC,"S. aureus ATCC 29213; S. aureus ATCC 29213, Table 1",0.5 µg/mL
same,MIC,S pyogenes,0.1 µg/mL
same,MIC,S. mitis,0.1 µg/mL
same,MIC,B. subtilis,1.0 µg/mL
same,MIC,B. cereus,1.0 µg/mL
same,MIC,L. monocytogenes,1.0 µg/mL
same,MIC,C. ulcerans,0.5 µg/mL
same,MIC,M. lutteus,1.0 µg/mL
same,MIC,[5],20.0 µg/mL
same,MIC,H. influenzae [6],10.0 µg/mL
same,MIC,N. meningitides,10.0 µg/mL
same,MIC,U. urealyticum,10.0 µg/mL
same,MIC,S. aureus SA77,0.5 µg/mL
same,MIC,S. aureus SA85,1.0 µg/mL
same,MIC,S. aureus VT-A-199,1.0 µg/mL
same,MIC,S. aureus VT-E-25,1.0 µg/mL
same,MIC,S. aureus VT-P-82,2.0 µg/mL
same,MIC,S. aureus VT-V-18,0.5 µg/mL
same,Resistance,[7],Not detected
same,efficacy on methicillin/vancomycin-resistant versus susceptible strains,[7],did not differ
same,reduction of the number of bacteria capable of growth in biofilms,[2]; 24 hours,1000 times
same,Number of CFU,[2],4.0 ± 1.0 × 10^5 CFU
same,Mice death,[3]; [9],1
same,Mice death,[3]; [10],1
same,Mice death,"[3]; 10 mg/kg orally 2 times a day, day 5",2
same,Mice death,"[3]; 10 mg/kg orally 2 times a day, day 6",1
same,Mice death,[3]; [11],1
same,Mice death,[3]; [12],1
same,Mice death,"[3]; 20 mg/kg orally 2 times a day, day 5",2
same,"Eradication, %","S. aureus; day 4, enterally twice a day",85.14%
same,"Eradication, %",S. aureus; day 8,91.89%
same,"Eradication, %",S. aureus; day 14,94.59%
same,"Eradication, Number of patients","S. aureus; day 4, enterally twice a day",63
same,"Eradication, Number of patients",S. aureus; day 8,68
same,"Eradication, Number of patients",S. aureus; day 14,70
same,"Eradication, %",S. pyogenes; day 4,94.37%
same,"Eradication, %",S. pyogenes; day 8,95.77%
same,"Eradication, %",S. pyogenes; day 14,95.77%
same,"Eradication, Number of patients",S. pyogenes; day 4,67
same,"Eradication, Number of patients",S. pyogenes; day 8,68
same,"Eradication, Number of patients",S. pyogenes; day 14,68
same,MIC,H. influenzae [1],10.0 µg/mL
"O=C([O-])CCC(=O)[O-].O=c1[nH]c(=O)c2cc3cc(Br)cc(Br)c3[o+]c2[nH]1.O=c1[nH]c(=O)c2cc3cc(Br)cc(Br)c3[o+]c2[nH]1 [Compound 1b, 7,9-dibromo-2,4-dioxo-1,2,3,4-tetrahydrochromeno[2,3-d]-pyrimidinium-10 succinate]",MIC,"S. aureus ATCC 29213; S. aureus ATCC 29213, Table 1",1.0 µg/mL
same,MIC,S pyogenes,2.0 µg/mL
same,MIC,S. mitis,2.0 µg/mL
same,MIC,B. subtilis,2.0 µg/mL
same,MIC,B. cereus,4.0 µg/mL
same,MIC,L. monocytogenes,4.0 µg/mL
same,MIC,C. ulcerans,2.0 µg/mL
same,MIC,M. lutteus,2.0 µg/mL
same,MIC,[5],30.0 µg/mL
same,MIC,H. influenzae [6],20.0 µg/mL
same,MIC,N. meningitides,20.0 µg/mL
same,MIC,U. urealyticum,20.0 µg/mL
CN(C)[C@@H]1C(O)=C(C(N)=O)C(=O)[C@@]2(O)C(O)=C3C(=O)c4c(O)cccc4[C@@](C)(O)[C@H]3C[C@@H]12 [Tetracycline],MIC,H. influenzae [1]; [8],2 µg/mL
